Legend:
Assay in all cases: Example B2 herbicidal action, post-emergence, pots in glasshouse, damage score 0-10
Assay type in all cases: in vivo
Conditions in all cases: application post-emergence, rate 1000 g/ha, evaluated after 13 days
Solanum nigrum = system: Solanum nigrum
How it was run: (§1)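 Seedlings grown 8 days in a controlled glasshouse received a foliar spray of the compound formulated in 50:50 acetone/water plus 0.5% Tween 20; plant damage was assessed 13 days afterward.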

Amaranthus retroflexus = system: Amaranthus retroflexus
How it was run: as §1

Setaria faberi = system: Setaria faberi
How it was run: as §1

Ipomea hederaceae = system: Ipomea hederaceae
How it was run: as §1

Echinochloa crus-galli = system: Echinochloa crus-galli
How it was run: as §1

C#CCN1c2nccnc2C(OC(=O)C(C)C)=C(c2c(Cl)ccc(Cl)c2C(F)(F)F)S1(=O)=O [Compound C84]
SOLNI damage score (10=total damage to plant; 0=no damage to plant) (Solanum nigrum): 10 | AMARE damage score (10=total damage to plant; 0=no damage to plant) (Amaranthus retroflexus): 9 | SETFA damage score (10=total damage to plant; 0=no damage to plant) (Setaria faberi): 7 | IPOHE damage score (10=total damage to plant; 0=no damage to plant) (Ipomea hederaceae): 8 | ECHCG damage score (10=total damage to plant; 0=no damage to plant) (Echinochloa crus-galli): 7

CC(C)C(=O)OC1=C(c2c(Cl)ccc(Cl)c2Cl)S(=O)(=O)N(C)c2nccnc21 [Compound C92]
SOLNI damage score (10=total damage to plant; 0=no damage to plant) (Solanum nigrum): 9 | AMARE damage score (10=total damage to plant; 0=no damage to plant) (Amaranthus retroflexus): 6 | SETFA damage score (10=total damage to plant; 0=no damage to plant) (Setaria faberi): 3 | IPOHE damage score (10=total damage to plant; 0=no damage to plant) (Ipomea hederaceae): 9 | ECHCG damage score (10=total damage to plant; 0=no damage to plant) (Echinochloa crus-galli): 4

CCN1c2nccnc2C(O)=C(c2cc(F)c(Cl)cc2Cl)S1(=O)=O [Compound D23]
SOLNI damage score (10=total damage to plant; 0=no damage to plant) (Solanum nigrum): 8 | AMARE damage score (10=total damage to plant; 0=no damage to plant) (Amaranthus retroflexus): 8 | SETFA damage score (10=total damage to plant; 0=no damage to plant) (Setaria faberi): 2 | IPOHE damage score (10=total damage to plant; 0=no damage to plant) (Ipomea hederaceae): 9 | ECHCG damage score (10=total damage to plant; 0=no damage to plant) (Echinochloa crus-galli): 2

CC(C)C(=O)OC1=C(c2cc(C(F)(F)F)ccc2Cl)S(=O)(=O)N(C)c2nccnc21 [Compound C90]
SOLNI damage score (10=total damage to plant; 0=no damage to plant) (Solanum nigrum): 10 | AMARE damage score (10=total damage to plant; 0=no damage to plant) (Amaranthus retroflexus): 8 | SETFA damage score (10=total damage to plant; 0=no damage to plant) (Setaria faberi): 1 | IPOHE damage score (10=total damage to plant; 0=no damage to plant) (Ipomea hederaceae): 9 | ECHCG damage score (10=total damage to plant; 0=no damage to plant) (Echinochloa crus-galli): 2

O=S1(=O)C(c2cc(C(F)(F)F)ccc2Br)=C(O)c2nccnc2N1CC(F)F [Compound D30]
SOLNI damage score (10=total damage to plant; 0=no damage to plant) (Solanum nigrum): 10 | AMARE damage score (10=total damage to plant; 0=no damage to plant) (Amaranthus retroflexus): 10 | SETFA damage score (10=total damage to plant; 0=no damage to plant) (Setaria faberi): 3 | IPOHE damage score (10=total damage to plant; 0=no damage to plant) (Ipomea hederaceae): 10 | ECHCG damage score (10=total damage to plant; 0=no damage to plant) (Echinochloa crus-galli): 6

Cc1ccc(F)c(C2=C(O)c3nccnc3N(CC(F)F)S2(=O)=O)c1Cl [Compound D12]
SOLNI damage score (10=total damage to plant; 0=no damage to plant) (Solanum nigrum): 9 | AMARE damage score (10=total damage to plant; 0=no damage to plant) (Amaranthus retroflexus): 6 | SETFA damage score (10=total damage to plant; 0=no damage to plant) (Setaria faberi): 2 | IPOHE damage score (10=total damage to plant; 0=no damage to plant) (Ipomea hederaceae): 5 | ECHCG damage score (10=total damage to plant; 0=no damage to plant) (Echinochloa crus-galli): 0

O=[N+]([O-])c1ccccc1C1=C(O)c2nccnc2N(CC(F)F)S1(=O)=O [Compound D32]
SOLNI damage score (10=total damage to plant; 0=no damage to plant) (Solanum nigrum): 6 | AMARE damage score (10=total damage to plant; 0=no damage to plant) (Amaranthus retroflexus): 5 | SETFA damage score (10=total damage to plant; 0=no damage to plant) (Setaria faberi): 1 | IPOHE damage score (10=total damage to plant; 0=no damage to plant) (Ipomea hederaceae): 5 | ECHCG damage score (10=total damage to plant; 0=no damage to plant) (Echinochloa crus-galli): 0

CCN1c2nccnc2C(OC(=O)C(C)(C)C)=C(c2cc(C(F)(F)F)ccc2Cl)S1(=O)=O [Compound C33]
SOLNI damage score (10=total damage to plant; 0=no damage to plant) (Solanum nigrum): 6 | AMARE damage score (10=total damage to plant; 0=no damage to plant) (Amaranthus retroflexus): 1 | SETFA damage score (10=total damage to plant; 0=no damage to plant) (Setaria faberi): 0 | IPOHE damage score (10=total damage to plant; 0=no damage to plant) (Ipomea hederaceae): 5 | ECHCG damage score (10=total damage to plant; 0=no damage to plant) (Echinochloa crus-galli): 0

O=S1(=O)C(c2ccc(Cl)cc2Cl)=C(OCC(F)(F)F)c2nccnc2N1CC(F)(F)F [Compound C106, 3-(2,4-dichloro-phenyl)-4-(2,2,2-trifluoro-ethoxy)-1-(2,2,2-trifluoro-ethyl)-1H-2-thia-1,5,8-triaza-naphthalene 2,2-dioxide]
SOLNI damage score (10=total damage to plant; 0=no damage to plant) (Solanum nigrum): 7 | AMARE damage score (10=total damage to plant; 0=no damage to plant) (Amaranthus retroflexus): 6 | SETFA damage score (10=total damage to plant; 0=no damage to plant) (Setaria faberi): 0 | IPOHE damage score (10=total damage to plant; 0=no damage to plant) (Ipomea hederaceae): 3 | ECHCG damage score (10=total damage to plant; 0=no damage to plant) (Echinochloa crus-galli): 1

CC(C)(C)C(=O)OC1=C(c2c(Cl)cccc2Cl)S(=O)(=O)N(CC(F)F)c2nccnc21 [Compound C28]
SOLNI damage score (10=total damage to plant; 0=no damage to plant) (Solanum nigrum): 6 | AMARE damage score (10=total damage to plant; 0=no damage to plant) (Amaranthus retroflexus): 7 | SETFA damage score (10=total damage to plant; 0=no damage to plant) (Setaria faberi): 2 | IPOHE damage score (10=total damage to plant; 0=no damage to plant) (Ipomea hederaceae): 6 | ECHCG damage score (10=total damage to plant; 0=no damage to plant) (Echinochloa crus-galli): 2

CC(C)(C)C(=O)OC1=C(c2c(Cl)ccc(Cl)c2C(F)(F)F)S(=O)(=O)N(CC(F)F)c2nccnc21 [Compound C52]
SOLNI damage score (10=total damage to plant; 0=no damage to plant) (Solanum nigrum): 8 | AMARE damage score (10=total damage to plant; 0=no damage to plant) (Amaranthus retroflexus): 9 | SETFA damage score (10=total damage to plant; 0=no damage to plant) (Setaria faberi): 8 | IPOHE damage score (10=total damage to plant; 0=no damage to plant) (Ipomea hederaceae): 10 | ECHCG damage score (10=total damage to plant; 0=no damage to plant) (Echinochloa crus-galli): 7

CC(C)(C)C(=O)OC1=C(c2c(F)ccc(Br)c2Cl)S(=O)(=O)N(CC(F)F)c2nccnc21 [Compound C35]
SOLNI damage score (10=total damage to plant; 0=no damage to plant) (Solanum nigrum): 10 | AMARE damage score (10=total damage to plant; 0=no damage to plant) (Amaranthus retroflexus): 10 | SETFA damage score (10=total damage to plant; 0=no damage to plant) (Setaria faberi): 7 | IPOHE damage score (10=total damage to plant; 0=no damage to plant) (Ipomea hederaceae): 10 | ECHCG damage score (10=total damage to plant; 0=no damage to plant) (Echinochloa crus-galli): 7

O=S1(=O)C(c2cc(Cl)cc(C(F)(F)F)c2)=C(O)c2nccnc2N1CC(F)F [Compound D19]
SOLNI damage score (10=total damage to plant; 0=no damage to plant) (Solanum nigrum): 2 | AMARE damage score (10=total damage to plant; 0=no damage to plant) (Amaranthus retroflexus): 0 | SETFA damage score (10=total damage to plant; 0=no damage to plant) (Setaria faberi): 0 | IPOHE damage score (10=total damage to plant; 0=no damage to plant) (Ipomea hederaceae): 0 | ECHCG damage score (10=total damage to plant; 0=no damage to plant) (Echinochloa crus-galli): 0

O=S1(=O)C(c2c(Cl)cccc2C(F)(F)F)=C(O)c2nccnc2N1CC(F)F [Compound D11]
SOLNI damage score (10=total damage to plant; 0=no damage to plant) (Solanum nigrum): 10 | AMARE damage score (10=total damage to plant; 0=no damage to plant) (Amaranthus retroflexus): 10 | SETFA damage score (10=total damage to plant; 0=no damage to plant) (Setaria faberi): 8 | IPOHE damage score (10=total damage to plant; 0=no damage to plant) (Ipomea hederaceae): 9 | ECHCG damage score (10=total damage to plant; 0=no damage to plant) (Echinochloa crus-galli): 8

CCN1c2nccnc2C(OC(=O)C(C)(C)C)=C(c2c(F)ccc(Cl)c2Cl)S1(=O)=O [Compound C16]
SOLNI damage score (10=total damage to plant; 0=no damage to plant) (Solanum nigrum): 10 | AMARE damage score (10=total damage to plant; 0=no damage to plant) (Amaranthus retroflexus): 7 | SETFA damage score (10=total damage to plant; 0=no damage to plant) (Setaria faberi): 0 | IPOHE damage score (10=total damage to plant; 0=no damage to plant) (Ipomea hederaceae): 7 | ECHCG damage score (10=total damage to plant; 0=no damage to plant) (Echinochloa crus-galli): 3

COc1ccc(Cl)c(C2=C(O)c3nccnc3N(CC(F)F)S2(=O)=O)c1F [Compound D60]
SOLNI damage score (10=total damage to plant; 0=no damage to plant) (Solanum nigrum): 7 | AMARE damage score (10=total damage to plant; 0=no damage to plant) (Amaranthus retroflexus): 1 | SETFA damage score (10=total damage to plant; 0=no damage to plant) (Setaria faberi): 2 | IPOHE damage score (10=total damage to plant; 0=no damage to plant) (Ipomea hederaceae): 8 | ECHCG damage score (10=total damage to plant; 0=no damage to plant) (Echinochloa crus-galli): 4

CCN1c2nccnc2C(OC(=O)C(C)C)=C(c2ccccc2[N+](=O)[O-])S1(=O)=O [Compound C67]
SOLNI damage score (10=total damage to plant; 0=no damage to plant) (Solanum nigrum): 1 | AMARE damage score (10=total damage to plant; 0=no damage to plant) (Amaranthus retroflexus): 0 | SETFA damage score (10=total damage to plant; 0=no damage to plant) (Setaria faberi): 0 | IPOHE damage score (10=total damage to plant; 0=no damage to plant) (Ipomea hederaceae): 2 | ECHCG damage score (10=total damage to plant; 0=no damage to plant) (Echinochloa crus-galli): 0

CC(C)(C)C(=O)OC1=C(c2ccccc2C(F)(F)F)S(=O)(=O)N(CC(F)F)c2nccnc21 [Compound C62]
SOLNI damage score (10=total damage to plant; 0=no damage to plant) (Solanum nigrum): 6 | AMARE damage score (10=total damage to plant; 0=no damage to plant) (Amaranthus retroflexus): 7 | SETFA damage score (10=total damage to plant; 0=no damage to plant) (Setaria faberi): 6 | IPOHE damage score (10=total damage to plant; 0=no damage to plant) (Ipomea hederaceae): 8 | ECHCG damage score (10=total damage to plant; 0=no damage to plant) (Echinochloa crus-galli): 4

CN1c2nccnc2C(OC(=O)C(C)(C)C)=C(c2c(Cl)ccc(Cl)c2Cl)S1(=O)=O [Compound C93]
SOLNI damage score (10=total damage to plant; 0=no damage to plant) (Solanum nigrum): 6 | AMARE damage score (10=total damage to plant; 0=no damage to plant) (Amaranthus retroflexus): 0 | SETFA damage score (10=total damage to plant; 0=no damage to plant) (Setaria faberi): 0 | IPOHE damage score (10=total damage to plant; 0=no damage to plant) (Ipomea hederaceae): 6 | ECHCG damage score (10=total damage to plant; 0=no damage to plant) (Echinochloa crus-galli): 3

Reference: US8133849B2, “Herbicidal compounds” (Syngenta Limited, priority 2007, dated 2012)
